Measured values from patent US20240124409A1, “GUAIANOLIDE SESQUITERPENE LACTONE DERIVATIVES AND PHARMACEUTICAL USE THEREOF” (NANJING UNIVERSITY OF CHINESE MEDICINE, priority 2021, published 2024).

Experiments:
[1] = system: mouse acute liver injury model; test: Mouse acute liver injury model (CCl4); format: in vivo, C57BL/6 mice; settings: for Acta2 mRNA expression / Col1a1 mRNA expression / Tgfb1 mRNA expression: liver; for ALT / AST: serum, 3 days
Description: The mice were randomly divided into 8 groups, one of which was randomly selected as the normal group, and the other 7 groups were the model group, the parent drug 1 (0.4 and 4 μmol/kg), the hydrochloride 22 (4 μmol/kg), and the fumarate 23 (0.4 and 4 μmol/kg) groups, respectively, with 6 mice in each group. In addition to the normal group injected with 10 mL olive oil/kg, the other mice were injected intraperitoneally with 0.5 mL CCl4+9.5 mL olive oil/kg weight, i.e., the ratio of CCl4 to olive oil was 1:19. […] The mice in the normal group and model group were administered intragastrically the same volume of the solvent 0.5% CMC-Na.
1 h after the last administration, blood was collected from the venous plexus of fundus oculi, stood at room temperature for 2 h, and centrifuged at 3000 rpm for 20 min. The serum was aspirated, aliquoted, and frozen at −70° C. for subsequent use. After blood collection, the mice were sacrificed by cervical dislocation, and the abdominal cavity was opened. The livers were taken out, and rinsed twice with pre-cooled PBS. The liver left lobe tissues of the mice were cut, and fixed with 4% paraformaldehyde for 24-48 h. The remaining tissues were frozen at −70° C. for subsequent use.
μL of each sample was taken for experiments. The levels of AST and ALT in the serum of mice were detected according to the operation manual. The absorbance value was detected at the wavelength of 510 nm by a microplate reader, and the sample concentration (U/L) was calculated according to the standard curve.
The extraction method of total RNA from tissues, cDNA synthesis and the PCR amplification method are the same as those in Example 4.

NLRP3 inflammasome = biological target: T1, NLRP3 inflammasome (Mus musculus, UniProt Q8R4B8); test: Inhibition of LPS and ATP induced NLRP3 inflammasome activation in BMDMs (IL-1β level); format: cell-based, C57BL/6 mice; settings: read-out: IC50, inhibitory effect on activation of NLRP3 inflammasome
T1 construct: endogenous in cells; host or cells: primary bone marrow-derived macrophages (BMDMs) from female C57BL/6 mice, differentiated with rmM-CSF
Excerpt: NLRP3 is an important pattern recognition receptor, that can form the NLRP3 inflammasome through the adaptor ASC and pro-caspase-1. After activation, the NLRP3 inflammasome can mediate the activation of caspase-1, thus promoting the maturation and secretion of IL-1β. In order to determine whether the prepared guaianolide sesquiterpene lactone Compounds 1-8 can inhibit the activation of the NLRP3 inflammasome, we used LPS and ATP to induce the activation of the NLRP3 inflammasome, and observed the effects of Compounds 1-8 on the IL-1β level caused by NLRP3 inflammasome activation.
C57BL/6 mice were sacrificed by cervical dislocation, and then soaked in 75% alcohol for 5-10 min. Subsequently, two hind legs of the mice were cut off with scissors. Next, the meat was removed, and the leg bones were left, which were then washed with PBS for three times. After severing the bone at both ends, a sterile syringe filled with cold serum-free RPMI 1640 medium was used to flush the bone marrow into a 15 mL centrifuge tube. Subsequently, the bone marrow was centrifuged at 1500 rpm for 5 min, and the supernatant was discarded. The residue was resuspended with 1 mL of erythrocyte lysate, blown repeatedly, and then stood for 7 min to lyse erythrocytes. After centrifugation at 1500 rpm for 5 min, the supernatant was discarded. The residue was resuspended with the RPMI 1640 medium containing 100 ng/ml of rmM-CSF, and then transferred to a 6-well culture plate for culture.
The BMDMs were seeded on 6-well cell culture plates and then treated with 100 ng/ml ultrapure LPS for 3 h. […] Subsequently, the cells were stimulated with 5 mM ATP for 45 min. The supernatants were collected into 1.5 mL EP tubes for subsequent detection of IL-1β level.

[2] = system: mouse acute kidney injury models; test: Mouse acute kidney injury model (folic acid); format: in vivo, C57BL/6 mice; set-up: Havcr1 mRNA expression / Ngal mRNA expression / Tnf mRNA expression / Il1 mRNA expression / Il6 mRNA expression / α-Sma mRNA expression / Col1a1 mRNA expression / Tgfb1 mRNA expression: scale not given here; BUN (urea level in serum): unit not given here; settings: for Scr (creatinine level in serum): in µmol/L (unit assumed); for Col1a1 mRNA expression / Havcr1 mRNA expression / Il1 mRNA expression / Il6 mRNA expression / Ngal mRNA expression / Tgfb1 mRNA expression / Tnf mRNA expression / α-Sma mRNA expression: kidney
Description: Acute kidney injury: The mice were randomly divided into 7 groups, one of which was randomly selected as the normal group, and the other 6 groups were the model group, the parent drug 1 (0.4 and 4 μmol/kg), the hydrochloride 22 (4 μmol/kg), and the fumarate 23 (0.4 and 4 μmol/kg) groups, respectively, with 6 mice in each group. In addition to the mice in the normal group, other mice were injected intraperitoneally with folic acid dissolved in 0.9% NaHCO3 solution (250 mg/kg) to establish mouse acute kidney injury models. 1 h before model establishment, the parent drug 1 (0.4 and 4 μmol/kg), the hydrochloride 22 (4 μmol/kg) and the fumarate 23 (0.4 and 4 μmol/kg) were administered intragastrically for 3 consecutive days. The mice in the normal group and model group were administered intragastrically the same volume of the solvent 0.5% CMC-Na.
1 h after the last administration, blood was collected from the venous plexus of fundus oculi, stood at room temperature for 2 h, and centrifuged at 3000 rpm for 20 min. The serum was aspirated, aliquoted, and frozen at −70° C. for subsequent use. After blood collection, the mice were sacrificed by cervical dislocation, and the abdominal cavity was opened. The kidneys were taken out, rinsed twice with pre-cooled PBS after the perirenal fats and capsules were peeled off, and then fixed with 4% paraformaldehyde for 24-48 h, embedded in paraffin and stained with HE. The remaining tissues were frozen at −70° C. for subsequent use.
μL serum was taken from each sample for the detection of creatinine and urea levels. Samples were added in accordance with the instructions of the kit strictly. After incubation at 37° C., the absorbance value was measured in a microplate reader, and the content levels of detection indicators in each group were calculated according to the standard curve.
The extraction of total RNA from animal tissues, cDNA synthesis and PCR amplification are as in above examples.

T1 sequence (Q8R4B8 whole entry): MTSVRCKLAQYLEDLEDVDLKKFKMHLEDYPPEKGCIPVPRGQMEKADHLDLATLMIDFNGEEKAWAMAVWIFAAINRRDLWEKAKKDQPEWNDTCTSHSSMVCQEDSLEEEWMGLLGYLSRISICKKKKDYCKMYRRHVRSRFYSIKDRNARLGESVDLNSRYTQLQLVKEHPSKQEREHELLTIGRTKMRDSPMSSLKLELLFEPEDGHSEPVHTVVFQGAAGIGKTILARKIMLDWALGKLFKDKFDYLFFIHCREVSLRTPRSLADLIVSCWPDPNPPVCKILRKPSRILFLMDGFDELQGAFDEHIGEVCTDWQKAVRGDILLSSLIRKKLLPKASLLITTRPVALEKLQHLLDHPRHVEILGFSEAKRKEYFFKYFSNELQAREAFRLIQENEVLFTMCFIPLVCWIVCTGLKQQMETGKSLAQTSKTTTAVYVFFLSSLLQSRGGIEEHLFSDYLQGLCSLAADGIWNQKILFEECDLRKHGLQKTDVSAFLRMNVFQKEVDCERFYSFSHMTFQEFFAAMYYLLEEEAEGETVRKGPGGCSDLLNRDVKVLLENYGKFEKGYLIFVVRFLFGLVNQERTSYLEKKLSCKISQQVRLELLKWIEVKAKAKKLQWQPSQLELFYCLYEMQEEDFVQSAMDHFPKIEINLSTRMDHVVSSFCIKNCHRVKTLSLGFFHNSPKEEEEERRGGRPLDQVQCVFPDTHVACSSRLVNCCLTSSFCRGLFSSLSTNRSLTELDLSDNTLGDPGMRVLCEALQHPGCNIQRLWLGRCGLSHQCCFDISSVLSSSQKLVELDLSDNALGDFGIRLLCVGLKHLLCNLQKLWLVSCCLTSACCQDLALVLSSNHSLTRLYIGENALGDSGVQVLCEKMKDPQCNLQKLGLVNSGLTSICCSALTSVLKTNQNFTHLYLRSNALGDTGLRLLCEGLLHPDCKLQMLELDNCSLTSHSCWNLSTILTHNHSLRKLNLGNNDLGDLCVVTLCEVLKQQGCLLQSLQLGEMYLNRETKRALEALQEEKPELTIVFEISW

| SMILES | Acta2 mRNA expression ([1]; 4 μmol/kg) | Col1a1 mRNA expression ([1]; 4 μmol/kg) | Tgfb1 mRNA expression ([1]; 4 μmol/kg) | ALT ([1]; 4 μmol/kg i.g.) [U/L] | AST ([1]; 4 μmol/kg i.g.) [U/L] | IC50 (NLRP3 inflammasome) [nM] | BUN (urea level in serum) ([2]; 4 μmol/kg i.g.) | Scr (creatinine level in serum) ([2]; 4 μmol/kg i.g.) | Col1a1 mRNA expression ([2]; 4 μmol/kg) | Havcr1 mRNA expression ([2]; 4 μmol/kg) | Il1 mRNA expression ([2]; 4 μmol/kg) | Il6 mRNA expression ([2]; 4 μmol/kg) | Ngal mRNA expression ([2]; 4 μmol/kg) | Tgfb1 mRNA expression ([2]; 4 μmol/kg) | Tnf mRNA expression ([2]; 4 μmol/kg) | α-Sma mRNA expression ([2]; 4 μmol/kg) | Acta2 mRNA expression ([1]; 0.4 μmol/kg) | Col1a1 mRNA expression ([1]; 0.4 μmol/kg) | Tgfb1 mRNA expression ([1]; 0.4 μmol/kg) | ALT ([1]; 0.4 μmol/kg i.g.) [U/L] | further results |
| --- | --- | --- | --- | --- | --- | --- | --- | --- | --- | --- | --- | --- | --- | --- | --- | --- | --- | --- | --- | --- | --- |
| CN(C)C[C@@H]1C(=O)O[C@H]2[C@H]1CC[C@@]1(C)C[C@]13CC[C@@](C)(O)[C@H]23 [Compound 22] | 1.85 | 1.16 | 0.92 | 85.02 | 153.34 | 40 to 80 | 16.74 | 64.94 | 1.18 | 62.86 | 1.06 | 1.55 | 13.05 | 0.98 | 2.31 | 1.11 | – | – | – | – | – |
| C=C1C(=O)O[C@@H]2[C@H]3C(C)=CC[C@@]34O[C@@]4(C)CC[C@@H]12 [arglabin, reference compound] | – | – | – | – | – | < 40 | – | – | – | – | – | – | – | – | – | – | – | – | – | – | – |
| C=C1C(=O)O[C@@H]2[C@@H]3[C@]4(CC[C@@]3(C)O)C[C@]4(C)CC[C@@H]12 [Compound 1] | 2.41 | 1.42 | 1.12 | 105.14 | 239.08 | < 40 | 21.33 | 71.95 | 1.32 | 99.99 | 1.72 | 3.98 | 20.17 | 1.36 | 2.76 | 1.42 | 3.78 | 2.33 | 1.43 | 174.83 | AST ([1]; 0.4 μmol/kg i.g.): 425.20 U/L; BUN (urea level in serum) ([2]; 0.4 μmol/kg i.g.): 31.46; Scr (creatinine level in serum) ([2]; 0.4 μmol/kg i.g.): 108.48; Col1a1 mRNA expression ([2]; 0.4 μmol/kg): 1.64; Havcr1 mRNA expression ([2]; 0.4 μmol/kg): 175.10; Il1 mRNA expression ([2]; 0.4 μmol/kg): 2.62; Il6 mRNA expression ([2]; 0.4 μmol/kg): 8.02; Ngal mRNA expression ([2]; 0.4 μmol/kg): 30.52; Tgfb1 mRNA expression ([2]; 0.4 μmol/kg): 1.96; Tnf mRNA expression ([2]; 0.4 μmol/kg): 2.89; α-Sma mRNA expression ([2]; 0.4 μmol/kg): 1.82 |
| CN(C)C[C@@H]1C(=O)O[C@H]2[C@H]1CC[C@@]1(C)C[C@]13CC[C@@](C)(O)[C@H]23 [Compound 23] | 2.15 | 1.33 | 0.97 | 99.46 | 216.14 | 40 to 80 | 18.95 | 50.39 | 1.20 | 83.11 | 1.45 | 5.61 | 13.08 | 1.09 | 2.42 | 0.90 | 2.97 | 1.83 | 1.08 | 134.21 | AST ([1]; 0.4 μmol/kg i.g.): 387.71 U/L; BUN (urea level in serum) ([2]; 0.4 μmol/kg i.g.): 30.08; Scr (creatinine level in serum) ([2]; 0.4 μmol/kg i.g.): 90.69; Col1a1 mRNA expression ([2]; 0.4 μmol/kg): 1.58; Havcr1 mRNA expression ([2]; 0.4 μmol/kg): 170.08; Il1 mRNA expression ([2]; 0.4 μmol/kg): 2.07; Il6 mRNA expression ([2]; 0.4 μmol/kg): 6.47; Ngal mRNA expression ([2]; 0.4 μmol/kg): 25.75; Tgfb1 mRNA expression ([2]; 0.4 μmol/kg): 1.64; Tnf mRNA expression ([2]; 0.4 μmol/kg): 2.60; α-Sma mRNA expression ([2]; 0.4 μmol/kg): 1.80 |
